The record followed here is patent US7659366B2, “Peptide with putative role in cytoskeletal protection” (priority 2005, dated 2010).

In the experiment the target is T1, G-actin (pyrene-labeled) (Oryctolagus cuniculus, UniProt P68135).
T1 construct: purchased Cytoskeleton, Inc., Colorado
In words: In vitro polymerization of pyrene-labeled G-actin. It is filed as biochemical. To be noted: buffer G with 1 mM MgCl2; conjugate 50 μg/ml, phalloidin 4 μM. On the procedure: In vitro polymerization of G-actin was performed according to the method of Maul and coworkers (Maul et al., 2003).
This in vitro assay is based on the enhanced fluorescence of pyrene-conjugated actin that occurs during polymerization in vitro.
For conducting the polymerization assay, general actin buffer containing pyrene actin and ATP was added to the wells. Then polymerization buffer, samples (P34 free peptide, P33 free peptide, P34BSA and P33BSA), and phalloidin (as positive control) were added to the wells. Then fluorescence intensity was read with a spectrophotometer (Excitation: 360 nm; Emission: 410 nm). The reading was done for 15 minutes with intervals of 30 seconds.
For the assay to determine inhibition of polymerization, all the wells contained polymerization buffer to initiate polymerization. […]
As mentioned above, in vitro polymerization of G-actin was performed according to the method of Maul and coworkers (Maul et al., 2003). […] 5 μl samples were applied on a microscope slide, and examined by fluorescence microscopy.
P34BSA was tested for the capacity to inhibit or induce actin polymerization. […] The fluorescence intensity of the mixture was read with a microplate fluorescence reader (FL600, Bio-Tek®; Ex. 360 nm, +/−20 nm bandwidth; Em. 410 nm, +/−10 nm bandwidth). The emissions were recorded for 15 min at 30 sec intervals. […]

Numbered stars: 1 amine (or outer) side, 2 acyl side, 3 side chain; on linkers, the order of the positions; unused ones are H or OH. Bridge positions count the residues as written; N and C are the ends. Square brackets hold non-standard residues; d marks the D form. Peptide text beside a SMILES is read from it. Trp(2-yl) = O=C([C@H](Cc1c([*:3])[nH]c2ccccc12)N[*:1])[*:2]; Leu(4R-OH,5-OH) = C[C@](O)(CO)C[C@H](N)C(=O)O; cisHyp = O=C(O)[C@@H]1C[C@H](O)CN1

As to `C[C@@H]1NC(=O)[C@H](C[C@@](C)(O)CO)NC(=O)[C@@H]2Cc3c([nH]c4ccccc34)SC[C@H](NC(=O)[C@@H]([C@H](C)O)NC1=O)C(=O)N1C[C@@H](O)C[C@H]1C(=O)N[C@@H](C)C(=O)N2` [phalloidin] (cyclo(A[dT]C[cisHyp]A[Trp(2-yl)][Leu(4R-OH,5-OH)]); thioether 3-6), the “induction of actin polymerization” value is listed as “able to promote polymerization”.
